In ChEMBL document CHEMBL1142734, “Biological properties of D- and L-1-deoxyazasugars” (J Med Chem, 2005):

Experiments:
[1] = target: T1, Lysosomal alpha-mannosidase (Homo sapiens) (UniProt O00754); assay: Percent inhibition of human alpha-mannosidase at 1000 uM
T1 sequence (whole entry): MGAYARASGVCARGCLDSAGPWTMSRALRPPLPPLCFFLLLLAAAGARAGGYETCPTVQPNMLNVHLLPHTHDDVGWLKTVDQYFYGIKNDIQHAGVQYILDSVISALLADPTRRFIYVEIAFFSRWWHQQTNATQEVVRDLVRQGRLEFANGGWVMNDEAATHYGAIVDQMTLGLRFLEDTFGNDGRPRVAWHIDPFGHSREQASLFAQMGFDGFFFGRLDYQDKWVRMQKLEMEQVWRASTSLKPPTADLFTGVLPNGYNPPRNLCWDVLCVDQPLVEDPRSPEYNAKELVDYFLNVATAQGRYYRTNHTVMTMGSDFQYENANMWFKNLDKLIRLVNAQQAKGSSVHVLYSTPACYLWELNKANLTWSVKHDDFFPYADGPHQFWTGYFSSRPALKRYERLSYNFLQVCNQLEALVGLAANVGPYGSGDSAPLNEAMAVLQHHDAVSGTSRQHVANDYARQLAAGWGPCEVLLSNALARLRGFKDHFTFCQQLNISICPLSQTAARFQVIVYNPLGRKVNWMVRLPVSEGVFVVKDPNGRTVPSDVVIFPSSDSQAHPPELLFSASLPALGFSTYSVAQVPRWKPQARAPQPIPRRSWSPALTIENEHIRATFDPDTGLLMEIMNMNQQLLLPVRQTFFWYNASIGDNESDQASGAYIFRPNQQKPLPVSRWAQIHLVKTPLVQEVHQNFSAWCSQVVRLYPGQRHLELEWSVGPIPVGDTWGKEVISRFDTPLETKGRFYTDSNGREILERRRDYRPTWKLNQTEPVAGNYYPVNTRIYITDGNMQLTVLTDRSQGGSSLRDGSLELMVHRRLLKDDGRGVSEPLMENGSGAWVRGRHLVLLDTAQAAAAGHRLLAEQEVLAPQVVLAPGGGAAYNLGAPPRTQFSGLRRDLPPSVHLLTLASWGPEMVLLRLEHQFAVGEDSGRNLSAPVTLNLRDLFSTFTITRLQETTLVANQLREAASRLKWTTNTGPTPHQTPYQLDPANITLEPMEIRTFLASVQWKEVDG

[2] = target: T2, Tissue alpha-L-fucosidase (Homo sapiens) (UniProt P04066); settings: 1000 uM
T2 sequence (whole entry): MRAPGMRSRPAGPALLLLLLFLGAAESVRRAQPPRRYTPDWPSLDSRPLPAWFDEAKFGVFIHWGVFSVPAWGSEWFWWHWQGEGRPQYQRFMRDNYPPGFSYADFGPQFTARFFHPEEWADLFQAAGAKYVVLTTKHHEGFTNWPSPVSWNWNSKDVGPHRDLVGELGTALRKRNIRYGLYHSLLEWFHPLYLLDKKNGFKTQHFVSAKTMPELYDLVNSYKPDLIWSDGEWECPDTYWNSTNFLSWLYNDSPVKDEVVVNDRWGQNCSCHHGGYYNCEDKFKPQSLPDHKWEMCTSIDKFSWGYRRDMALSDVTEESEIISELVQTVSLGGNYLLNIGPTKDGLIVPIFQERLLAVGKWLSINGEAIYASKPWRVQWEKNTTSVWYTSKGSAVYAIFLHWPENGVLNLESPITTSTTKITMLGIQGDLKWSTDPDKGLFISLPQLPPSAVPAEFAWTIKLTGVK

[3] = Inhibitory concentration against alpha-galactosidase of coffee bean; design: species or system Coffea arabica
[4] = target: Maltase-glucoamylase (Homo sapiens) (UniProt O43451); settings: 1000 uM
[5] = target: T3, Beta-mannosidase (Rattus norvegicus) (UniProt Q4FZV0); assay: Percent inhibition of beta-mannosidase of rat epididymis at 1000 uM
T3 sequence (whole entry): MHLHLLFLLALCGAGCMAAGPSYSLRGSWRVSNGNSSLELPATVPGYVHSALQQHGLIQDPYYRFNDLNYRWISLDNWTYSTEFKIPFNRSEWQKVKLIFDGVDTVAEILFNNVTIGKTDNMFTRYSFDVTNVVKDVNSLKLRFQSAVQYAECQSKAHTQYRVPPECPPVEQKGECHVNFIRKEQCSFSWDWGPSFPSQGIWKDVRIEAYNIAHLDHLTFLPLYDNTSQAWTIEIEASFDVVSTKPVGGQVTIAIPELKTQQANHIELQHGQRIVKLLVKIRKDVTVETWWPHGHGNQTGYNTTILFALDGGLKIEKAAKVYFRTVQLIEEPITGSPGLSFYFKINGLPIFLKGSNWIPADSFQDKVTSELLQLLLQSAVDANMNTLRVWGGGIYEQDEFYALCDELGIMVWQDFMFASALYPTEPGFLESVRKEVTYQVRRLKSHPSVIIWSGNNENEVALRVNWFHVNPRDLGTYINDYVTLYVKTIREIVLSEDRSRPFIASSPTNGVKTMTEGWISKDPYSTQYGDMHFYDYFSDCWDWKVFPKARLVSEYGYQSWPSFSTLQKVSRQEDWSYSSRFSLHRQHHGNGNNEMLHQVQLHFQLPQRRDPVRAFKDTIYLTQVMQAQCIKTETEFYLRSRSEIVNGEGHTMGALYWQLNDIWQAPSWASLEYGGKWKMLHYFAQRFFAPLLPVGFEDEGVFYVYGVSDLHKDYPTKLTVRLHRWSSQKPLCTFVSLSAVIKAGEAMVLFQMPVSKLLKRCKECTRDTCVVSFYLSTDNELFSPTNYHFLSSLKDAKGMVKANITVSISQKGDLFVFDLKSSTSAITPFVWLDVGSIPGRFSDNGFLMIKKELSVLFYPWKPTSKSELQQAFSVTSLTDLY

[6] = target: T4, Cytosolic beta-glucosidase (Homo sapiens) (UniProt Q9H227); settings: 1000 uM
T4 sequence (whole entry): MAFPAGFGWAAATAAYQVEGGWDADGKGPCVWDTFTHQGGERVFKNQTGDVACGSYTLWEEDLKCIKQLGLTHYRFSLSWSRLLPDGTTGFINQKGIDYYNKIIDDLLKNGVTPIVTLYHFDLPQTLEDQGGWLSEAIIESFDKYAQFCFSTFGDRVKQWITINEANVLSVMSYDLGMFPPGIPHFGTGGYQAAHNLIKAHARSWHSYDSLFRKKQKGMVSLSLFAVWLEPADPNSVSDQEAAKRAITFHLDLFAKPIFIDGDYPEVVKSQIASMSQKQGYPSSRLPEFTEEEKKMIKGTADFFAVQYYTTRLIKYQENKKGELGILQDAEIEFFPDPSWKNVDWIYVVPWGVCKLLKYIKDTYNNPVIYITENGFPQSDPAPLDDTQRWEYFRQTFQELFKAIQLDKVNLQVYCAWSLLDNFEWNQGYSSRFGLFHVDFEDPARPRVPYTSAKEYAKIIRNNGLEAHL

Sequence of Maltase-glucoamylase (Homo sapiens) (O43451 whole entry, looked up): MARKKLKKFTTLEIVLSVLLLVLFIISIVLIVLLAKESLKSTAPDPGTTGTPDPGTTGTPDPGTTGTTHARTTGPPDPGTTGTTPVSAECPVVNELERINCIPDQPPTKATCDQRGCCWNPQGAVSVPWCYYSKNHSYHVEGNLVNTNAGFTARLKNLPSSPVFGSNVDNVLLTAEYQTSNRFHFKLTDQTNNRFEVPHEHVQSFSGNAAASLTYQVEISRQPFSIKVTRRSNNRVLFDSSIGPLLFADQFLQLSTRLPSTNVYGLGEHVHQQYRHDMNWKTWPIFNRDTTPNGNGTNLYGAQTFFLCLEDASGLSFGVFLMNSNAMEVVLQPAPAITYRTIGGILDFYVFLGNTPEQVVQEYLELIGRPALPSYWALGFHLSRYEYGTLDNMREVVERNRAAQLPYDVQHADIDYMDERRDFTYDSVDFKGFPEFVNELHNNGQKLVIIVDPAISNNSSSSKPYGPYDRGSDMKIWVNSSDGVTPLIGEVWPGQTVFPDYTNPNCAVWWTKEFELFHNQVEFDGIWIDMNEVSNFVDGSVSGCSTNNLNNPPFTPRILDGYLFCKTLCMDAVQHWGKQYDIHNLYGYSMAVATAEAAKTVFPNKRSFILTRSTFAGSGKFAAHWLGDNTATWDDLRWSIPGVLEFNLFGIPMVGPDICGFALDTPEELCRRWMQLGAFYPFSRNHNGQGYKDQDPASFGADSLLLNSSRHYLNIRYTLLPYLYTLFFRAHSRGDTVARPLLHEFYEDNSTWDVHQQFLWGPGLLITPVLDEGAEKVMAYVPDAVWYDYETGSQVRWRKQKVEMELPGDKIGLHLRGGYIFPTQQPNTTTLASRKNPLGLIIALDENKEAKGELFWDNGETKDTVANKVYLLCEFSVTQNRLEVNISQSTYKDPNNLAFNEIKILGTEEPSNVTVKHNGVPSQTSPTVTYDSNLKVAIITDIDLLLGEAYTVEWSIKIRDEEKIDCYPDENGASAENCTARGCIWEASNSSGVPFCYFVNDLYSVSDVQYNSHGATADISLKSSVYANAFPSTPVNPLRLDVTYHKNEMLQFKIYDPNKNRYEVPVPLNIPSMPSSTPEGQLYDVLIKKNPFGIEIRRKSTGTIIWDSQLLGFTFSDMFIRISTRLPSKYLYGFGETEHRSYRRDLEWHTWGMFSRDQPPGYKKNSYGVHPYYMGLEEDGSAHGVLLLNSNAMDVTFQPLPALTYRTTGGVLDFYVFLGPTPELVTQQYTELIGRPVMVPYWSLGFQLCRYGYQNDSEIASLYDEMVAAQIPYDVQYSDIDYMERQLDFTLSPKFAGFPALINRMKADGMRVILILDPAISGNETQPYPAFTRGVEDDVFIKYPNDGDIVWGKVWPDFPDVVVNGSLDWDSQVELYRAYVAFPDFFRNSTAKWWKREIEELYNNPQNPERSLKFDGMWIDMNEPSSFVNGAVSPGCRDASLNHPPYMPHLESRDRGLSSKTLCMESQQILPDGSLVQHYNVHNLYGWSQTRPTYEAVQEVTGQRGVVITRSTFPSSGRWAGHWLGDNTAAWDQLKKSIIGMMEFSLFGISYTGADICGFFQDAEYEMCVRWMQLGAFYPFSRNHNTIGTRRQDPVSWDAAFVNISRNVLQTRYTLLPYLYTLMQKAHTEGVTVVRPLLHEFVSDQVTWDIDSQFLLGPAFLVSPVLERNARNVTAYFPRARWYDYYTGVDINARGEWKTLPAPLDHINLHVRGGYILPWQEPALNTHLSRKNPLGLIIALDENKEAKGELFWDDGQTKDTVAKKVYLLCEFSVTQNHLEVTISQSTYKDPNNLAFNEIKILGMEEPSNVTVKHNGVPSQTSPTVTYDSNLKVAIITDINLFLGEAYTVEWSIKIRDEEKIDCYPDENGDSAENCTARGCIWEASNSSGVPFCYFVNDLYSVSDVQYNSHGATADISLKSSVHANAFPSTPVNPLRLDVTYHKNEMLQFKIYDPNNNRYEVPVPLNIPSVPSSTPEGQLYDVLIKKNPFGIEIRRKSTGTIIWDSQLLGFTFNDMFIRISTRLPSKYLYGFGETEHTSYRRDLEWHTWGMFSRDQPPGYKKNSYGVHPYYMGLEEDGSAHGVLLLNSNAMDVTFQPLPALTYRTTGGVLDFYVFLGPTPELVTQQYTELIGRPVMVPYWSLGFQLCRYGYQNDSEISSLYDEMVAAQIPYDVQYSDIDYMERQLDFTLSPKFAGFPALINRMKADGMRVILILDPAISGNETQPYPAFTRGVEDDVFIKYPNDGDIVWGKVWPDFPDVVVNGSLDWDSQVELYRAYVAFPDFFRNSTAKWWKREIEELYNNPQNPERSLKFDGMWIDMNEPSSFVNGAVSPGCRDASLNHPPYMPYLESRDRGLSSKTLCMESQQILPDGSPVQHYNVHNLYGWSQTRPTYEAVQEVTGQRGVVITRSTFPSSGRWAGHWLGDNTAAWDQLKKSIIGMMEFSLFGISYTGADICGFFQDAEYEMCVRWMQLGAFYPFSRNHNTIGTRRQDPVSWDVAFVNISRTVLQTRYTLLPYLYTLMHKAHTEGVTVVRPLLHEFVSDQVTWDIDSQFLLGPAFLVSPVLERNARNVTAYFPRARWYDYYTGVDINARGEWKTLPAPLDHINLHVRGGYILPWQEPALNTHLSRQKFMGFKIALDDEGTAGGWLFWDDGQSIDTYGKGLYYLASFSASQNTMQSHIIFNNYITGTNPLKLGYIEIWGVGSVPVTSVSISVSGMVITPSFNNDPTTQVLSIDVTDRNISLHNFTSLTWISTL

Compound	inhibition [1] [%]	inhibition [2] [%]	IC50 [3] [µM]	inhibition [4] [%]	inhibition [5] [%]	inhibition [6] [%]
OC[C@H]1NC[C@H](O)[C@@H](O)[C@@H]1O [DUVOGLUSTAT]	< 50	< 50	880			
OC[C@@H]1NC[C@@H](O)[C@@H](O)[C@@H]1O	< 50			< 50	< 50	< 50
OC[C@H]1NC[C@H](O)[C@H](O)[C@H]1O	< 50	< 50	160	< 50	< 50	< 50
OC[C@@H]1NC[C@@H](O)[C@H](O)[C@@H]1O	< 50		13	< 50	< 50	< 50
OC[C@@H]1NC[C@@H](O)[C@H](O)[C@H]1O	< 50	< 50		< 50	< 50	< 50
OC[C@H]1NC[C@@H](O)[C@@H](O)[C@@H]1O [DEOXYMANNOJIRIMYCIN]	< 50			< 50	< 50	< 50
OC[C@@H]1NC[C@H](O)[C@@H](O)[C@@H]1O	< 50	< 50		< 50	< 50	< 50
OC[C@H]1NC[C@@H](O)[C@H](O)[C@H]1O	< 50	< 50	67	< 50	< 50	
OC[C@@H]1NC[C@@H](O)[C@@H](O)[C@H]1O		< 50	290	< 50	< 50	< 50
OC[C@H]1NC[C@H](O)[C@@H](O)[C@H]1O	< 50	< 50	0.003	< 50	< 50	< 50
OC[C@H]1NC[C@H](O)[C@H](O)[C@@H]1O	< 50		260	< 50	< 50	< 50
OC[C@@H]1NC[C@H](O)[C@H](O)[C@H]1O	< 50	< 50		< 50	< 50	< 50
